Earlier results in patent US10369266B2, “Multipart fluid system and a system for citrate anticoagulation in an extracorporeal blood circuit” (Gambro Lundia AB, priority 2013, dated 2019).

Test system: endothelial inflammation and dysfunction
Details: citrate 0.8 mM; hypoglycemic state; in vitro

## O=C(O)CC(O)(CC(=O)O)C(=O)O [citrate]
  effect on endothelial inflammation and dysfunction: reduces endothelial inflammation and dysfunction
